Measured values from patent publication US20090226384A1, “ANTIMICROBIAL COMPOSITION CONTAINING TRICLOSAN AND AT LEAST ONE FUNCTIONALIZED HYDROCARBON” (priority 2006, published 2009).
≈ marks a conversion by molar mass, not a printed value. Read-outs that look alike come from different tables or passages of the source.

Legend:
[1] = test system: Aspergillus niger MTCC 1344; test: MIC by macrobroth double dilution (NCCLS); format: cell-based
Description: (§1) MIC value—is the lowest concentration of the antimicrobial agent required to inhibit growth of the microorganism was determined by the macrobroth double dilution method as per the NCCLS guidelines. (Reference Method for broth dilution antifungal susceptibility testing of Yeasts, Approved Standard; M27A, Vol. 17, No. 9, 1997 & Methods for dilution antimicrobial susceptibility tests for bacteria that grow aerobically; Approved Standard—5th Ed., M7-A5, Vol. 20, No. 2, 2000. National Committee for Clinical Laboratory Standards, Wayne, Pa.).
(§2) The test substances viz., TCS, CMB, ZPTO, KTZ, LGO, Citral, Nerol & Geraniol were prepared as stock solutions. Weighed 10 mg of TCS, CMB, ZPTO, & KTZ individually and dissolved in 1 ml of solvent (IN NaOH for TCS and DMSO for CMB, ZPTO & KTZ) and diluted in 19 ml SDB. The concentration of the prepared substances was 500 μg/ml. Similarly, weighed 400 mg of LGO, Citral, Nerol & Geraniol individually and dissolved in 2 ml DMSO and diluted in 18 ml SDB. The concentration of LGO, Citral, Nerol & Geraniol was 20000 μg/ml. All test solutions were prepared afresh prior to determination of MIC.
(§3) S. aureus, S. epidermidis and B. subtilis were cultured in Mueller Hinton Agar (MHA) for 24 hrs. at 37° C. 1-2 colonies were suspended in MHB overnight at 37° C. C. albicans and A. niger were cultured in Sabauraud Dextrose Agar (SDA) at 28° C. for 24 hrs and 4 days respectively. 1-2 colonies of C. albicans was suspended in SDB and cultured overnight at 28° C. Aspergillus spores were washed with physiological saline prior to testing. M. furfur was cultured in SDA with 1% Tween 80 for 72 hrs at 32° C. Colonies were suspended in SDB with 1% Tween 80 and incubated at 32° C. M. restricta was cultured in Dixon agar at 32° C. for 3-4 days. Colonies were suspended in saline prior to testing.
(§4) Colonies suspended in broth/saline were determined for counts photometrically. (Hammer K A, et al.: Antimicrob. Agents Chemo., (2000), 44(2): 467-469). The organisms were diluted such that the final concentration was 1×10^6 cfu/ml for S. aureus, S. epidermidis and B. subtilis, 1×10^5 cfu/ml for C. albicans and A. niger and 2×10^3 cfu/ml for M. furfur and M. restricta.
(§5) Double fold serial dilutions were done with the test substance, such that the final concentration of TCS was between 250 μg/ml and 0.03 μg/ml; and that of functionalized hydrocarbon (Citral, Nerol, Geraniol) and/or mixtures containing such functionalized hydrocarbons (LGO) was between 10000 μg/ml-19.53 μg/ml. Inoculated organisms were added to the tubes and required controls were also set up in the assay to rule out contamination/inactivation of the test substance.
(§6) Tubes were incubated for 24 hrs at 37° C. for S. aureus, S. epidermidis and B. subtilis; at 28° C. for C. albicans; for 48 hrs at 28° C. for A. niger, 32° C. for M, furfur and M. restricta. At the end of the incubation period, 10 μl aliquots from each tube were spot inoculated onto Nutrient agar (for bacteria), SDA (for C. albicans & A. niger), SDA with 1% Tween 80 for M. furfur and Dixon Agar for M. restricta. The plates were incubated for 24 hrs at 37° C. (S. aureus, S. epidermidis & B. subtilis), at 28° C. (C. albicans); 3-4 days at 28° C. (A. niger), 48-72 hrs at 32° C. (M. furfur & M. restricta) when the colonies became visible.
(§7) At the end of the incubation period, plates were checked for growth of colonies.
(§8) 140 mg of the sample was dissolved in 2 ml of Dimethyl Sulfoxide (DMSO) and further diluted in 18 ml of SDB. The final concentration of antimicrobial and functionalized hydrocarbon and/or mixtures containing such functionalized hydrocarbons in the mixture was 333.33 μg/ml and 6666.66 μg/ml respectively.
(§9) 205 mg of the sample was dissolved in 2 ml of Dimethyl Sulfoxide (DMSO) and further diluted in 18 ml of SDB. The final concentration of antimicrobial and functionalized hydrocarbon and/or mixtures containing such functionalized hydrocarbons in the mixture was 250 μg/ml and 10000 μg/ml respectively.

[2] = test system: Bacillus subtilis MTCC 441; test: MIC by macrobroth double dilution (NCCLS); format: cell-based
Description: as §1, §2, §3, §4, §5, §6, §7, §8, §9

[3] = test system: Candida albicans MTCC 3017; test: MIC by macrobroth double dilution (NCCLS); format: cell-based
Description: as §1, §2, §3, §4, §5, §6, §7, §8, §9

[4] = test system: Malassezia furfur (Pityrosporum ovale) MTCC 1374; test: MIC by macrobroth double dilution (NCCLS); format: cell-based
Description: as §1, §2, §3, §4, §5, §6, §7, §8, §9

[5] = test system: Malassezia restricta CBS 7877; test: MIC by macrobroth double dilution (NCCLS); format: cell-based
Description: as §1, §2, §3, §4, §5, §6, §7, §8, §9

[6] = test system: Staphylococcus aureus MTCC 96; test: MIC by macrobroth double dilution (NCCLS); format: cell-based
Description: as §1, §2, §3, §4, §5, §6, §7, §8, §9

[7] = test system: Staphylococcus epidermidis MTCC 435; test: MIC by macrobroth double dilution (NCCLS); format: cell-based
Description: as §1, §2, §3, §4, §5, §6, §7, §8, §9

[8] = Bhargava & Leonard 1996; cited from earlier work
[9] = MTCC1344, individual ingredient, A. niger, read-out: MIC
[10] = MTCC441, individual ingredient, B. subtilis, read-out: MIC
[11] = MTCC3017, individual ingredient, C. albicans, read-out: MIC
[12] = Malassezia furfur, MTCC1374, individual ingredient, M. furfur, read-out: MIC
[13] = CBS7877, individual ingredient, M. restricta, read-out: MIC
[14] = MTCC96, individual ingredient, S. aureus, read-out: MIC
[15] = MTCC435, individual ingredient, S. epidermidis, read-out: MIC

Compound | MIC [1, 9] [µg/mL] | MIC [2, 10] [µg/mL] | MIC [3, 11] [µg/mL] | MIC [4, 12] [µg/mL] | MIC [5, 13] [µg/mL] | MIC [6, 14] [µg/mL] | MIC [7, 15] [µg/mL] | other results
CC(C)=CCCC(C)=CC=O [Citral] | 625 (≈ 4110 µM) | 5000 (≈ 32800 µM) | 156 (≈ 1030 µM) | 39.1 (≈ 257 µM) | 156 (≈ 1030 µM) | 312 (≈ 2050 µM) | 312 (≈ 2050 µM) | 
CC(C)=CCC/C(C)=C\CO [Nerol] | 1250 (≈ 8100 µM) | 10000 (≈ 64800 µM) | 1250 (≈ 8100 µM) | 156 (≈ 1010 µM) | 312 (≈ 2030 µM) | 5000 (≈ 32400 µM) | 1250 (≈ 8100 µM) | 
CC(C)=CCC/C(C)=C/CO [Geraniol] | 5000 (≈ 32400 µM) | 2500 (≈ 16200 µM) | 1250 (≈ 8100 µM) | 156 (≈ 1010 µM) | 312 (≈ 2030 µM) | 5000 (≈ 32400 µM) | 1250 (≈ 8100 µM) | 
Zinc Pyrithione [ZPTO] |  |  |  |  |  |  |  | MIC ([4]; individual ingredient, M. furfur): 3.9 µg/mL
CC(=O)N1CCN(c2ccc(OCC3COC(Cn4ccnc4)(c4ccc(Cl)cc4Cl)O3)cc2)CC1 (stereo not drawn) [KTZ, Ketoconazole] |  |  |  | 0.48 (≈ 0.903 µM) |  |  |  | 
CC(C)(C)C(=O)C(Oc1ccc(Cl)cc1)n1ccnc1 (stereo not drawn) [CMB, Climbazole] |  |  |  | 1.95 (≈ 6.66 µM) |  |  |  | 
Oc1cc(Cl)ccc1Oc1ccc(Cl)cc1Cl [TCS, 2,4,4′-trichloro-2′-hydroxydiphenyl ether, reference compound] |  |  |  |  |  |  |  | MIC ([1]; MTCC1344): 31.2 µg/mL (≈ 108 µM); MIC ([2]; MTCC441): 15.6 µg/mL (≈ 53.9 µM); MIC ([3]; MTCC3017): 15.6 µg/mL (≈ 53.9 µM); MIC ([4]; Malassezia furfur, MTCC1374): 62.5 µg/mL (≈ 216 µM); MIC ([5]; CBS7877): 62.5 µg/mL (≈ 216 µM); MIC ([6]; MTCC96): 1.95 µg/mL (≈ 6.73 µM); MIC ([7]; MTCC435): 7.81 µg/mL (≈ 27 µM); carcinogenic, mutagenic or teratogenic effects [8]: not found to have any carcinogenic, mutagenic or teratogenic effects; toxicity to humans and other mammals [8]: relatively non-toxic
